We go through 20 compounds from patent US11161850B2, “Fused pyrazine derivatives as A2A / A2B inhibitors” (Incyte Corporation, priority 2018, dated 2021).

In one assay the target is Adenosine A2A (Homo sapiens (Human), UniProt P29274). Kind of assay: A2A Tag-Lite HTRF assay. It counts as binding. The text has this:
Example C. A2A Tag-Lite® HTRF Assay
For orientation: Time-resolved FRET reads energy transfer from a long-lived donor to a nearby acceptor.

In assay [1] the target is human adenosine A2B receptor (Homo sapiens (Human), UniProt P29275). Kind of assay: Adenosine A2B Receptor Cyclic AMP GS Assay. Format: cell-based. The conditions noted are these: HEK-293 cells expressing human A2B, agonist NECA 12 nM. As to the method: Example B. Adenosine A2B Receptor Cyclic AMP GS Assay
Chain of human adenosine A2B receptor (P29275 whole entry): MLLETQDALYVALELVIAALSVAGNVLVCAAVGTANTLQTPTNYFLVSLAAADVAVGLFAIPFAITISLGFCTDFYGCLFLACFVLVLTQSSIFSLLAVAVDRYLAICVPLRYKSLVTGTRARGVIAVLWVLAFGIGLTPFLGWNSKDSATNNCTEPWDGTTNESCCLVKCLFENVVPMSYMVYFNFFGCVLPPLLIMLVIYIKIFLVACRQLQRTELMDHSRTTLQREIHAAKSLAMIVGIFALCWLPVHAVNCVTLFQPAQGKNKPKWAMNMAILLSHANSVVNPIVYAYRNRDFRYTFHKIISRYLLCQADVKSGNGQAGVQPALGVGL
Stably transfected HEK-293 cells expressing the human adenosine A2B receptor (Perkin Elmer) were maintained in MEM culture medium with 10% FBS and 100 μg/mL Geneticin (Life Technologies). 18 to 24 hours prior to assay, geneticin was removed from culture. The cisbio cAMP-GS Dynamic kit utilizing the FRET (Fluorescence Resonance Energy Transfer) technology was used to measure cAMP accumulation in the cells. Compounds of the present disclosure at an appropriate concentration were mixed with 10000 cells/well in white 96 well half area plates (Perkin Elmer) for 30 min at room temperature gently shaking. Agonist, NECA (R&D Technologies) at 12 nM was added to each well for 60 min at room temperature gently shaking. Detection reagents, d2-labeled cAMP (acceptor) and anti-cAMP cryptate (donor) were added to each well for 60 min at rt gently shaking. Plates were read on Pherastar (BMG Labtech), fluorescence ratio 665/620 was calculated and EC50 determination was performed by fitting the curve of percent of control versus the log of the compound concentration using GraphPad Prism.

Where [2] appears, read: Tag-Lite Adenosine A2A labeled cells, fluorescent ligand 12.5 nM, read-out: A2A_Ki.
[3] abbreviates: read-out: A2A_Ki, Tag-Lite Adenosine A2A labeled cells, fluorescent ligand 12.5 nM.

SMILES strings stand for the structures. Read-outs that look alike come from different tables or passages of the source.

Chain of Adenosine A2A (P29274 whole entry): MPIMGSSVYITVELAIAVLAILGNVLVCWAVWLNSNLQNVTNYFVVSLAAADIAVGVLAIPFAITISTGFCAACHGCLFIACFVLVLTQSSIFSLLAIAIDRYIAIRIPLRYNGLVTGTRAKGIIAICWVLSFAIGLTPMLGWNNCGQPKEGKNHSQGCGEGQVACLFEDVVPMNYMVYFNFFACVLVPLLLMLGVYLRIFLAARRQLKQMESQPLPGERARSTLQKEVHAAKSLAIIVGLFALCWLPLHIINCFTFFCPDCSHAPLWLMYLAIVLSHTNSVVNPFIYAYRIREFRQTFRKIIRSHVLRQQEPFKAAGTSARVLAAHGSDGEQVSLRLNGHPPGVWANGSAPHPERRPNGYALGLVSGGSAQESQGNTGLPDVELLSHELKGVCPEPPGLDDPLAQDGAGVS

As for `Cn1cc(-c2cccnc2Cc2nc3c(N)nc(-c4cccc(C#N)c4)c(-c4ccncn4)n3n2)cn1` [Example 122, 3-(8-Amino-2-((3-(1-methyl-1H-pyrazol-4-yl)pyridin-2-yl)methyl)-5-(pyrimidin-4-yl)-[1,2,4]triazolo[1,5-a]pyrazin-6-yl)benzonitrile], at Adenosine A2A (setting [2]), the Ki is less than 10 nM. In assay [1] (A2B_cAMP_EC50 (nM)), the EC50 lay in the range of 10 to 100 nM.

Take `Cc1ncoc1-c1c(-c2cccc(C#N)c2)nc(N)c2nc(C(O)c3ccccn3)nn12` (racemic) [Example 40, 3-(8-Amino-2-(hydroxy(pyridin-2-yl)methyl)-5-(4-methyloxazol-5-yl)-[1,2,4]triazolo[1,5-a]pyrazin-6-yl)benzonitrile]: at Adenosine A2A (setting [2]), the Ki was less than 10 nM. The compound further returned an EC50 in assay [1] (A2B_cAMP_EC50 (nM)) of less than 10 nM.

Consider `N#Cc1cccc(-c2nc(N)c3nc(C(O)c4cc(F)ccc4F)nn3c2-c2ccncn2)c1` (single isomer, unassigned) [Example 51, 3-(8-Amino-2-((2,5-difluorophenyl)(hydroxy)methyl)-5-(pyrimidin-4-yl)-[1,2,4]triazolo[1,5-a]pyrazin-6-yl)benzonitrile], for which the Ki at Adenosine A2A was less than 10 nM. This compound also displayed an EC50 in assay [1] (A2B_cAMP_EC50 (nM)) of less than 10 nM.

As for `N#Cc1cccc(-c2nc(N)c3ncnn3c2-c2ccc3nccn3c2)c1` [Example 124, 3-(8-Amino-5-(imidazo[1,2-a]pyridin-6-yl)-[1,2,4]triazolo[1,5-a]pyrazin-6-yl)benzonitrile], the Ki on Adenosine A2A (setting [2]) is less than 10 nM. For the same compound, in assay [1] (A2B_cAMP_EC50 (nM)), the EC50 was less than 10 nM.

As to `COc1cccc(Cc2nc3c(N)nc(-c4cccc(C#N)c4)c(-c4ccc(=O)n(C)n4)n3n2)n1` [Example 128, 3-(8-amino-2-((6-methoxypyridin-2-yl)methyl)-5-(1-methyl-6-oxo-1,6-dihydropyridazin-3-yl)-[1,2,4]triazolo[1,5-a]pyrazin-6-yl)benzonitrile], the Ki at Adenosine A2A (setting [2]) is less than 10 nM. This compound had an EC50 in assay [1] (A2B_cAMP_EC50 (nM)) of 10 to 100 nM.

Consider `N#Cc1cccc(-c2nc(N)c3nc(Cn4ncc5ccccc54)nn3c2-c2ccncn2)c1` [Example 48, 3-(2-((1H-Indazol-1-yl)methyl)-8-amino-5-(pyrimidin-4-yl)-[1,2,4]triazolo[1,5-a]pyrazin-6-yl)benzonitrile], for which the Ki on Adenosine A2A (setting [2]) was less than 10 nM. The same compound gave an EC50 in assay [1] (A2B_cAMP_EC50 (nM)) of 10 to 100 nM.

With `Cc1ncoc1-c1c(-c2cccc(C#N)c2)nc(N)c2nc(Cc3ccccn3)nn12` [Example 42, 3-(8-Amino-5-(4-methyloxazol-5-yl)-2-(pyridin-2-ylmethyl)-[1,2,4]triazolo[1,5-a]pyrazin-6-yl)benzonitrile], the Ki at Adenosine A2A (setting [2]) was less than 10 nM. This compound also showed an EC50 in assay [1] (A2B_cAMP_EC50 (nM)) of less than 10 nM.

For `N#Cc1cccc(-c2nc(N)c3nc(C(=O)N4CCC4)nn3c2-c2ccncc2F)c1` [Example 125, 3-(8-amino-2-(azetidine-1-carbonyl)-5-(3-fluoropyridin-4-yl)-[1,2,4]triazolo[1,5-a]pyrazin-6-yl)benzonitrile], the Ki at Adenosine A2A (setting [2]) is less than 10 nM. The EC50 in assay [1] (A2B_cAMP_EC50 (nM)) lay in the range of 10 to 100 nM.

On to `CN(C)Cc1cccc(F)c1C(O)c1nc2c(N)nc(-c3cccc(C#N)c3)c(-c3ccncn3)n2n1` (single isomer, unassigned) [Example 100, 3-(8-amino-2-((2-((dimethylamino)methyl)-6-fluorophenyl)(hydroxy)methyl)-5-(pyrimidin-4-yl)-[1,2,4]triazol[1,5-a]pyrazin-6-yl)benzonitrile], for which, on Adenosine A2A, the Ki is less than 10 nM. In assay [1] (A2B_cAMP_EC50 (nM)), this compound came in with an EC50 of 100 to 1000 nM.

For the compound `N#Cc1cccc(-c2nc(N)c3nc(Cc4ccccn4)nn3c2-c2ccncn2)c1` [Example 27, 3-(8-Amino-2-(pyridin-2-ylmethyl)-5-(pyrimidin-4-yl)-[1,2,4]triazolo[1,5-a]pyrazin-6-yl)benzonitrile], the Ki at Adenosine A2A (setting [2]) is less than 10 nM. In assay [1] (A2B_cAMP_EC50 (nM)), this compound yielded an EC50 of less than 10 nM.

Regarding `CCNC(=O)c1cc2c(N)nc(-c3cccc(C#N)c3)c(-c3ccncn3)n2n1` [Example 4, 4-Amino-6-(3-cyanophenyl)-N-ethyl-7-(pyrimidin-4-yl)pyrazolo[1,5-a]pyrazine-2-carboxamide], the Ki at Adenosine A2A (setting [2]) was less than 10 nM. Also, the EC50 in assay [1] (A2B_cAMP_EC50 (nM)) was in the range of 10 to 100 nM.

For the compound `CCn1nccc1-c1c(-c2cccc(C#N)c2)nc(N)c2nc(C(O)c3c(F)cccc3F)nn12` (single isomer, unassigned) [Example 93, 3-(8-amino-2-((2,6-difluorophenyl)(hydroxy)methyl)-5-(1-ethyl-1H-pyrazol-5-yl)-[1,2,4]triazolo[1,5-a]pyrazin-6-yl)benzonitrile], the Ki on Adenosine A2A (setting [3]) was less than 10 nM. Besides, the EC50 in assay [1] (read-out: A2B_cAMP_EC50) is less than 10 nM.

`Cc1n[nH]cc1-c1c(-c2cccc(C#N)c2)nc(N)c2nc(C(O)c3c(F)cccc3F)nn12` (single isomer, unassigned) [Example 102, 3-(8-amino-2-((2,6-difluorophenyl)(hydroxy)methyl)-5-(3-methyl-1H-pyrazol-4-yl)-[1,2,4]triazolo[1,5-a]pyrazin-6-yl)benzonitrile] gave a Ki at Adenosine A2A of less than 10 nM. In addition, the EC50 in assay [1] (A2B_cAMP_EC50 (nM)) is less than 10 nM.

Regarding `N#Cc1cccc(-c2nc(N)c3nc(C(O)c4c(F)cccc4F)nn3c2-c2cnco2)c1` (single isomer, unassigned) [Example 106, 3-(8-amino-2-((2,6-difluorophenyl)(hydroxy)methyl)-5-(oxazol-5-yl)-[1,2,4]triazolo[1,5-a]pyrazin-6-yl)benzonitrile], at Adenosine A2A (setting [3]), the Ki was less than 10 nM. Besides, in assay [1] (read-out: A2B_cAMP_EC50), the EC50 was less than 10 nM.

For `N#Cc1cccc(-c2cn3nc(Cc4c(F)cccc4-c4cnn(CC(=O)N5CC(O)C5)c4)nc3c(N)n2)c1F` [Example 118, 3-(8-amino-2-(2-fluoro-6-(1-(2-(3-hydroxyazetidin-1-yl)-2-oxoethyl)-1H-pyrazol-4-yl)benzyl)-[1,2,4]triazolo[1,5-a]pyrazin-6-yl)-2-fluorobenzonitrile], at Adenosine A2A (setting [2]), the Ki was less than 10 nM. The compound also showed an EC50 in assay [1] (A2B_cAMP_EC50 (nM)) of less than 10 nM.

As to `[2H]C([2H])([2H])n1nc(-c2c(-c3cccc(C#N)c3)nc(N)c3nc(Cc4ccccn4)nn23)ccc1=O` [Example 127, 3-(8-amino-5-(1-(methyl-d3)-6-oxo-1,6-dihydropyridazin-3-yl)-2-(pyridin-2-ylmethyl)-[1,2,4]triazolo[1,5-a]pyrazin-6-yl)benzonitrile], at Adenosine A2A, the Ki is less than 10 nM. The same compound displayed an EC50 in assay [1] (A2B_cAMP_EC50 (nM)) of less than 10 nM.

`CCNC(=O)c1cc2c(N)nc(-c3cccc(C#N)c3)c(C3(C(F)(F)F)CC3)n2n1` [Example 6, 4-Amino-6-(3-cyanophenyl)-N-ethyl-7-(1-(trifluoromethyl)cyclopropyl)pyrazolo[1,5-a]pyrazine-2-carboxamide] registered a Ki on Adenosine A2A of 10 to 100 nM. In assay [1] (A2B_cAMP_EC50 (nM)), the EC50 is more than 1000 nM.

`N#Cc1cccc(-c2nc(N)c3cc(Cc4c[nH]c5cccnc45)nn3c2-c2ccncn2)c1` [Example 96, 3-(2-((1H-pyrrolo[3,2-b]pyridin-3-yl)methyl)-4-amino-7-(pyrimidin-4-yl)pyrazolo[1,5-a]pyrazin-6-yl)benzonitrile]: the Ki on Adenosine A2A (setting [2]) is less than 10 nM. Moreover, in assay [1] (A2B_cAMP_EC50 (nM)), the EC50 is 10 to 100 nM.

For `CC(=O)N1CCC(Cc2cccc(F)c2Cc2nc3c(N)nc(-c4cccc(C#N)c4F)cn3n2)CC1` [Example 91, 3-(2-(2-((1-acetylpiperidin-4-yl)methyl)-6-fluorobenzyl)-8-amino-[1,2,4]triazolo[1,5-a]pyrazin-6-yl)-2-fluorobenzonitrile], the Ki at Adenosine A2A (setting [2]) was less than 10 nM. In assay [1] (A2B_cAMP_EC50 (nM)), this compound yielded an EC50 of 10 to 100 nM.

In the case of `N#Cc1cccc(-c2cn3nc(Cc4ccccc4F)c(C#N)c3c(N)n2)c1` [Example 21, 4-Amino-6-(3-cyanophenyl)-2-(2-fluorobenzyl)pyrazolo[1,5-a]pyrazine-3-carbonitrile], the Ki on Adenosine A2A (setting [2]) is less than 10 nM. The compound further registered an EC50 in assay [1] (A2B_cAMP_EC50 (nM)) of 100 to 1000 nM.
